Measured values reported in US20260347401A1, “Peptide Fragment And Use Thereof” (TOAGOSEI CO., LTD., priority 2023, published 2026).
FAM = 5(6)-carboxyfluorescein

Tested on: NSC-34 cells
Experiment: Evaluation of cell membrane permeability by flow cytometry (fluorescence of FAM taken up by NSC-34 cells)
Type: cell-based, mouse
Details: for median fluorescence intensity (MFI): 10 μM in culture solution, 0.50% DMSO, 37 °C, 5% CO2, flow cytometer detector FL2; for median fluorescence intensity (MFI) / MFI compared with Example 3 (FAM): 20 hours; for MFI compared with Example 3 (FAM): 10 μM, result in words; for cell membrane permeability: peptide fragment, tested as FAM construct, conclusion in words
Experimental: As the eukaryotic cells, NSC-34 cells (mouse motor neuron-like hybrid cell line) were used and the cell membrane permeability of the prepared construct was evaluated.
The NSC-34 cell was cultured in 10% fetal bovine serum (FBS)-containing Dulbecco's modified Eagle's medium (DMEM (Cat No. 044-29765, manufactured by FUJIFILM Wako Pure Chemical Corporation)), which is a culture medium.
The NSC-34 cell that adhered to a culture plate was cleaned with PBS and then, a 0.25%-trypsin/EDTA solution was added thereto, and incubation was performed for three minutes at 37 °C. After the incubation, the aforementioned 10% FBS-containing DMEM was added to deactivate trypsin and then, five-minute centrifugal separation was performed at 150×g to precipitate the cells. After the supernatant generated by the centrifugal separation was removed, the 10% FBS-containing DMEM was added to the precipitate (cell pellet) to prepare a cell suspension of about 2×10^5 cells/mL. The cell suspension was added by 1 mL to a well of a commercially available six-hole (well) plate (manufactured by AGC TECHNO GLASS Co., Ltd.) so as to seed the cell (about 2×10^5 cells/well), and incubation was caried out for about two to three hours until the cell adhered to a bottom surface of the well. After that, the 2 mM sample solution 1 prepared as above was diluted with the 10% FBS-containing DMEM to prepare the sample solution 1 in which the concentration of the sample was 20 μM. Then, 1 mL of the 20 μM sample solution 1 was added to the well (that is, so that the concentration of the construct 1 became 10 μM and the DMSO concentration became 0.50% in the culture solution in the well). The cell was incubated for 20 hours at 37 °C under a 5% CO2 condition.
After the 20-hour incubation, the culture supernatant was removed from the well and the cells in the well were cleaned twice with 1 mL of PBS. Next, 100 μL of the 0.25% trypsin/EDTA solution was added to the well and the incubation was performed for three minutes at 37 °C. After the incubation, 900 μL of the 10% FBS-containing DMEM was added to the well to deactivate the trypsin. The cell suspension in the well was transferred to a tube and the cells were collected. After that, pre-washing was performed additionally, so that the cells remaining in the well were collected in the tube. This tube was subjected to five-minute centrifugal separation at 4 °C under a condition of 210×g. After the centrifugal separation, the supernatant was removed and the precipitate (cell pellet) was suspended (cleaned) with 1 mL of PBS, which was followed by the centrifugal separation under the same condition as that described above. Then, the supernatant was removed and thus, the cells (cell pellet) cultured in a culture medium containing the sample were obtained.
Regarding the obtained cells (cell pellet), the cell membrane permeability was analyzed using a flow cytometer. As the flow cytometer, On-Chip Flowcytometer (manufactured by On-Chip Biotechnologies Co., LTD.) was used.
For such an analysis, the obtained cell pellet was suspended with 50 μL of on-chip T buffer to prepare a cell suspension for analysis.
Using the aforementioned flow cytometer, gating based on forward scatter (FSC) and side scatter (SSC) was performed to set a gate about a cell group to be analyzed, and the fluorescence intensity was measured about the cell group in this gate. Note that the number of cells of the cell group to be analyzed was set to at least 10000, and the analysis was performed. The fluorescence intensity was measured using a fluorescence detector FL2 of the flow cytometer (optimum detection wavelength around 543 nm) capable of detecting the fluorescence wavelength of FAM. Regarding this measurement result, the analysis was performed using commercially available analysis software “FlowJo” (manufactured by TreeStar) to obtain median fluorescence intensity (MFI) of the cell group to be measured (see Table 1). […]

Substance | median fluorescence intensity (MFI) | MFI compared with Example 3 (FAM) | cell membrane permeability
5(6)-carboxyfluorescein [Example 3, reference compound] | 7.28 |  | 
Ac-VLSRVQLREKLTR-FAM (Ac-VLSRVQLREKLTR-{FAM}) [Example 2] | 31.3 | higher | 
Ac-VLSRVVQLLREKLTRKK-FAM [Example 1] | 30.4 | higher | 
VLSRVQLREKLTR [SEQ ID No.: 2, peptide fragment (synthetic peptide) having cell membrane permeability] |  |  | has the cell membrane permeability
VLSRVVQLLREKLTRKK [SEQ ID No.: 1, peptide fragment (synthetic peptide) having cell membrane permeability] |  |  | has the cell membrane permeability
